Results reported in patent US20230271969A1, “NITROGEN-CONTAINING FUSED RING DERIVATIVE INHIBITOR, PREPARATION METHOD THEREFOR AND USE THEREOF” (Shanghai Hansoh Biomedical Co., Ltd., priority 2020, published 2023).
Read-outs that look alike come from different tables or passages of the source.

What was measured:
NK3 receptors [1] = target: T1, NK3 receptors (Homo sapiens, UniProt P29371); experiment: Calcium ion fluidity (FLIPR) in cells with stable expression of NK3 receptors; type: cell-based; conditions: calcium signal, antagonist mode, read-out: NK3R IC50 (nM) FLIPR
T1 construct: expressed in transfected cells
T1 sequence (P29371 1-465): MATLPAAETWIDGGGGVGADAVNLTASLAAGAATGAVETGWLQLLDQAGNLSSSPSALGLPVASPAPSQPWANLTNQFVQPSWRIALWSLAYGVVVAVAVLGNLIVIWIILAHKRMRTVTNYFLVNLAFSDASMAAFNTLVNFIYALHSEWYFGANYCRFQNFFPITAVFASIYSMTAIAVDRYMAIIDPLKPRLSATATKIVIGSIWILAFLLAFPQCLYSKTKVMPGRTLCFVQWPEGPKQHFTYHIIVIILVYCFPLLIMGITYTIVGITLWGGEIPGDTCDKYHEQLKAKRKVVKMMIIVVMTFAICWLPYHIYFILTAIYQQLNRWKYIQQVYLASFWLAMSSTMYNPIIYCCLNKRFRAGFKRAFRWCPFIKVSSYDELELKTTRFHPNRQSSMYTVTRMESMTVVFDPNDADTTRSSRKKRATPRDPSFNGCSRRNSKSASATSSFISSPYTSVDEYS
Description: Determination of the Effect of the Compounds of the Present Invention on Calcium Ion Fluidity in Cells with Stable Expression of NK3 Receptors
Experimental objective: The objective of this test example was to determine the inhibitory effect of the compounds on NK3 receptors.
Experimental Methods: • 1. […] Probenecid and BSA were freshly added on the day of the experiment. The buffers for the experiments included dye buffer, compound dilution buffer and the like. • 2. […] The culture medium was discarded, and 20 μL of dye was added. The cells were incubated at 37° C. in the dark for 60 min, and then the calcium signal was read. • 4. The antagonist was prepared before the experiments. […] The plate was transferred to FLIPR, and 6× concentration of the agonist compound was added at 5 μL/well. The values were read and the data were saved by using FLIPR. The total assay volume was 30 μL, comprising 20 μL/well of dye buffer, 5 μL/well of 5× concentration of the experimental compound, and 5 μL/well of 6× concentration of the agonist compound.
The calcium signal value was read by FLIPR. The output of each sampling time point in the experiment was calculated as the ratio of the signals at wavelengths of 340/510 nm to 380/510 nm. The maximum minus minimum value was calculated from the ratio signal curve. The IC50 value of the compound was calculated by fitting the data of inhibition rate percentage and ten concentrations to the parametric nonlinear logistic equation by using GraphPad prism.

[2] = Pharmacokinetic assay in SD rats (plasma and brain tissue); type: in vivo; conditions: rat, po, male SD rats, p.o. 5 mg/kg; for AUC(0-t): read-out: Area under curve AUC0-t; for Tmax: read-out: Peak time tmax; for Cmax: read-out: Plasma concentration Cmax
Protocol: Test Example 4. Pharmacokinetic Assays in SD Rats
SD rats were used as test animals. The in vivo (plasma and brain tissue) pharmacokinetic behavior of the compounds of the present invention was investigated by oral administration of the compound in rats at a dose of 5 mg/kg.
Male SD rats (21 animals per group), purchased from Shanghai JieSiJie Laboratory Animal Co., Ltd., under the Animal Production License Number of SCXK (Shanghai) 2013-0006 No. 311620400001794.
The experimental drug was dissolved in 0.5% CMC-Na (1% Tween 80) by sonication to formulate a clear solution or a homogeneous suspension.
After an overnight fast, male SD rats (21 animals per group) were administered p.o. with the experimental drug at an administration dose of 5 mg/kg and the administration volume of 10 mL/kg.
Rats were sacrificed with CO2 at 0, 0.5, 1, 2, 4, 8 and 24 hours before and after the drug administration. 8 mL of blood was collected by cardiac puncture, placed in EDTA-K2 tubes, and centrifuged at 4° C. at 6,000 rpm for 6 min. Plasma was separated and stored at −80° C. The whole brain tissue was dissected and weighed, and then placed in a 2 mL centrifuge tube and stored at −80° C.
2.6 Sample Processing: • 1) 160 μL of acetonitrile was added to 40 μL of plasma sample for precipitation. After mixing, the sample was centrifuged at 3500×g for 5-20 minutes. • 2) 90 μL of acetonitrile containing internal standard (100 ng/mL) was added to 30 μL of plasma or brain homogenate sample for precipitation. After mixing, the sample was centrifuged at 13,000 rpm for 8 minutes. • 3) 70 μL of water was added to 70 μL of treated supernatant, and mixed by vortex for 10 minutes. Then 20 μL of the sample was analyzed by LC/MS/MS to determine the concentration of the compound to be tested. The LC/MS/MS instrument for analysis was AB Sciex API 4000 Qtrap.
2.7 Liquid Chromatography Analysis: • Liquid chromatography conditions: Shimadzu LC-20AD pump • Chromatographic column: Agilent ZORBAX XDB-C18 (50×2.1 mm, 3.5 μm) Mobile phase: Eluent A was 0.1% formic acid in water, and Eluent B was acetonitrile. • Flow rate: 0.4 mL/min • Elution time: 0-4.0 minutes, the eluate was as follows:
The major pharmacokinetic parameters were calculated by using WinNonlin 6.1, and the results of the pharmacokinetic experiments in rats were shown in Table 3 below: […]

NK3 receptors [3] = target: T1, NK3 receptors; experiment: Antagonism of IP1 in HEK293 cells with stable expression of NK3; type: cell-based; conditions: agonist Senktide 3 nM, read-out: NK3R IC50 (nM) IP1
Protocol: Determination of the Effect of the Compounds of the Present Invention on IP1 in HEK293 Cells with Stable Expression of NK3
The objective of this test example was to determine the antagonism effect of the compounds on the activity of HEK293-NK3 cells.
3. Experimental Methods: • 1. […] HEK293-NK3 cell line was cultured in complete medium and seeded in the coated dishes at 37° C., 5% CO2 until 70%˜90% confluence. • 3. […] The cells were digested and resuspended in 1× Stimulation Buffer (IP-ONE Gq Kit), seeded into the 384-well cell culture plate (which contained the compound to be tested) at 5,000 cells/well/5 μL by using Multidrop Combi. The culture plate was centrifuged at 300 rpm at room temperature for 60 seconds, and then incubated at 37° C., 5% CO2 for 15 minutes. • 5. The cell culture plate was taken out from the CO2 incubator. […] The culture plate was centrifuged at 300 rpm at room temperature for 60 seconds, and then incubated at 37° C., 5% CO2 for 2 hours. • 6. The cell culture plate was taken out from the CO2 incubator. 5 μL of IP1 d2 reagent and then 5 μL of IP1 Tb Cryptate Antibody reagent were added by using Multidrop Combi. The culture plate was centrifuged at room temperature at 300 rpm for 60 seconds, and left to stand at room temperature for 1 hour. • 7. The plate was read by using EnVision Multilabel Reader, and data were collected at the same time.
The fluorescence signal ratio (Ratio) was read and collected by EnVision Multilabel Reader. According to the readings of the Low control (DMSO control) and High control (p)ositive compound) experimental groups, the antagonism percentage data were calculated as {% antagonism=(Ratio sample−Ratio low control)/(Ratio high control−Ratio low control)×100}.

[4] = test system: Senktide-induced bilateral ovariectomy rats; experiment: Tail skin temperature in a Senktide-induced bilateral ovariectomy rat model; type: in vivo; conditions: OVX SD rats, oral 30 mg/kg, 30 min before s.c. Senktide, tail skin temperature over 75 min
Description: Pharmacodynamic Study of the Test Compounds on Tail Skin Temperature in a Senktide-Induced Bilateral Ovariectomy Rat Model
To evaluate the effect of the test compounds on tail skin temperature in Senktide-induced bilateral ovariectomy rats.
2.3. Experimental Animals • Ten-Week-old female bilateral ovariectomy SD rats were purchased from Beijing Vital River Laboratory Animal Technology Co., Ltd. The animals were housed in a SPF grade animal facility with 5 SD rats per cage. The cages, bedding, feed and water were disinfected at high temperatures before use. All animals had free access to food and water.
Ten-week-old female SD rats were subjected to bilateral ovariectomy and recovered for two weeks, and then randomly divided into negative control group, model group and drug administration group (8 rats per group), based on body weight. The probe was attached to the dorsal surface of the rat tail with medical tape, 1-2 cm away from the tailhead of the rat.
The vehicle was administered orally to the negative control group and the model group, and different test compounds were administered orally to each drug administration group at a dose of 30 mg/kg and a volume of 10 mL/kg.
Thirty minutes after the oral administration of the vehicle or test compound, the negative control group was injected subcutaneously with normal saline (at a volume of 5 mL/kg); the model group and each drug administration group were injected subcutaneously with 0.2 mg/mL of Senktide (at a volume of 5 mL/kg) to induce the hot flashes-like symptom.
The change in tail skin temperature (ΔTST) at each time point relative to time point 0 was calculated, the ΔTST-time curve of the change in tail skin temperature was plotted, and the area under curve (AUCΔTST) was calculated. ΔTST=TSTn−TST0, TST0 is the tail skin temperature at 0 minute before the subcutaneous injection of normal saline or Senktide; TSTn is the tail skin temperature at the n minute after the subcutaneous injection.
AUCΔTST=Σ(ΔTSTn+ΔTSTn+5)*5/2

SMILES	IC50 (NK3 receptors [1]) [nM]	AUC(0-t) ([2]; Brain) [ng·h/mL]	Tmax ([2]; Brain) [h]	Cmax ([2]; Brain) [ng/mL]	AUC(0-t) ([2]; Plasma) [ng·h/mL]	half-life ([2]; Plasma, read-out: Half life t1/2 (converted)) [h]	MRT ([2]; Plasma, read-out: Mean residence time MRT) [h]	Tmax ([2]; Plasma) [h]	Cmax ([2]; Plasma) [ng/mL]	IC50 (NK3 receptors [3]) [nM]	AUCΔTST [4] [°C · min]
C[C@@H]1c2nnc(-c3nc(Cl)ns3)n2CCN1C(=O)c1ccc(Cl)cc1 [Example 57, (R)-(3-(3-Chloro-1,2,4-thiadiazol-5-yl)-8-methyl-5,6-dihydro-[1,2,4]triazolo[4,3-a]pyrazin-7(8H)-yl)(4-chlorophenyl)methanone]	61	2340	1	670	7130	3.2	4.8	2	930	28.9	
[2H]c1c([2H])c(C(=O)N2CCn3c(-c4nc5ccccc5s4)nnc3[C@H]2C)c([2H])c([2H])c1F [Example 2, (R)-(3-(Benzo[d]thiazol-2-yl)-8-methyl-5,6-dihydro-[1,2,4]triazolo[4,3-a]pyrazin-7 (8H)-yl)(4-fluorophenyl-2,3,5,6-d4)methanone]	58.2									171	71.3 ± 25.5
C[C@@H]1c2nnc(-c3nc4cc(F)c(F)cc4s3)n2CCN1C(=O)c1ccc(F)cc1 [Example 17, (R)-(3-(5,6-Difluorobenzo[d]thiazol-2-yl)-8-methyl-5,6-dihydro-[1,2,4]triazolo[4,3-a]pyrazin-7(8H)-yl)(4-fluorophenyl)methanone]	6.81	3230	4	1120	46700			6	2300	15.2	
Cc1nsc(-c2nnc3n2CCN(C(=O)c2ccc(F)cc2)[C@@H]3C)n1 [Fezolinetant]	904										116.7 ± 50.6
C[C@@H]1c2nnc(-c3nc4ccccc4s3)n2CCN1C(=O)c1ccc(Cl)cc1 [Example 3, (R)-(3-(Benzo[d]thiazol-2-yl)-8-methyl-5,6-dihydro-[1,2,4]triazolo[4,3-a]pyrazin-7 (8H)-yl)(4-chlorophenyl)methanone]	30.5									68.7	81.3 ± 37.4
C[C@@H]1c2nnc(-c3nc4ccc(Cl)cc4s3)n2CCN1C(=O)c1ccc(F)cc1 [Example 19, (R)-(3-(6-Chlorobenzo[d]thiazol-2-yl)-8-methyl-5,6-dihydro-[1,2,4]triazolo[4,3-a]pyrazin-7(8H)-yl)(4-fluorophenyl)methanone]	10.9									15.6	
Cc1ccc2nc(-c3nnc4n3CCN(C(=O)c3ccc(Cl)c(Cl)c3)[C@@H]4C)sc2c1 [Example 26, (R)-(3,4-Dichlorophenyl)(8-methyl-3-(6-methylbenzo[d]thiazol-2-yl)-5,6-dihydro-[1,2,4]triazolo[4,3-a]pyrazin-7(8H)-yl)methanone]	96.7									36.1	
C[C@@H]1c2nnc(-c3nc4ccccc4s3)n2CCN1C(=O)c1ccc(Cl)c(Cl)c1 [Example 4, (R)-(3-(Benzo[d]thiazol-2-yl)-8-methyl-5,6-dihydro-[1,2,4]triazolo[4,3-a]pyrazin-7 (8H)-yl)(3,4-dichlorophenyl)methanone]	61.3									94.3	
